pIC50: −log10 of the molar value.
Tests used:
DNA = conditions: double stranded DNA; cited from earlier work
murine tumors = conditions: cited from earlier work
[1] = test system: ATCC SK-MEL-28 (Melanoma); test: Sulforhodamine B cytotoxicity assay, SK-MEL-28; type: cell-based; conditions: 72 hours, SRB
Method: (§1) Sulfurodamine B Cytotoxicity Assay
(§2) Cytotoxicity assays using (-)-calicheamicinone were carried out as follows:
(§3) 1. Preparation of target cells in 96-well plates
(§4) g. Adjust volume of cell suspension with T.C. media to give a density of 1×10^5 cells/mL.
(§5) j. Incubate plates for 24 hours at 37° C., 5-10 percent CO2 in a humidified incubator.
(§6) a. Stock drug solutions were prepared by dissolving drug in the appropriate solvent (determined during chemical characterization studies) and sterile filtering the drug-solvent solution through a sterile 0.2 μ filter unit. An aliquot was taken from each filtered drug solution and the O.D. was measured to determine the drug concentration.
(§7) b. Dilute the stock drug solution prepared above with T.C. medium to the desired initial concentration (10^-2 -10^-4 M). A minimum volume of 220 μL of diluted drug is required per 96-well plate used in the assay.
(§8) b. Add 100 μL of the initial compound dilution to adjacent duplicate wells in Columns #2. (Four materials can be tested in duplicate per 96-well plate.)
(§9) d. Transfer 10 μL to the appropriate wells in Column #4 and continue to make 1:10 dilutions of compound across the plate through Column #12.
f. […]
(§10) g. Read plates on a microtiter plate reader at […].
(§11) IC50 values; i.e., the concentration of Compound required to kill one-half of the treated cells, were then calculated. […]

[2] = test system: ATCC P-388 (Mouse leukemia); test: Sulforhodamine B cytotoxicity assay, P-388; type: cell-based; conditions: SRB
Method: as §1, §2, §3, §4, §5, §6, §7, §8, §9
f. […]
as §10, §11

[3] = test system: ATCC HT-29 (Colon carcinoma); test: Sulforhodamine B cytotoxicity assay, HT-29; type: cell-based; conditions: 72 hours, SRB
Method: as §1, §2, §3, §4, §5, §6, §7, §8, §9
f. […]
as §10, §11

[4] = test system: ATCC Ovcar 3 (Ovarian carcinoma); test: Sulforhodamine B cytotoxicity assay, Ovcar 3; type: cell-based; conditions: 72 hours, SRB
Method: as §1, §2, §3, §4, §5, §6, §7, §8, §9
f. […]
as §10, §11

[5] = test system: CHO (Chinese hampster ovary); test: Sulforhodamine B cytotoxicity assay, CHO; type: cell-based; conditions: 72 hours, SRB
Method: as §1, §2, §3, §4, §5, §6, §7, §8, §9
f. […]
as §10, §11

[6] = test system: NHDF (Normal human dermal fibroblast); test: Sulforhodamine B cytotoxicity assay, NHDF; type: cell-based; conditions: 72 hours, SRB
Method: as §1, §2, §3, §4, §5, §6, §7, §8, §9
f. […]
as §10, §11

[7] = test system: ATCC Capan-1 (pancreatic carcinoma); test: Sulforhodamine B cytotoxicity assay, Capan-1; type: cell-based; conditions: 72 hours, SRB
Method: as §1, §2, §3, §4, §5, §6, §7, §8, §9
f. […]
as §10, §11

UCLA-P3 (lung carcinoma) = test: Sulforhodamine B cytotoxicity assay, UCLA-P3; type: cell-based; conditions: SRB
Method: as §1, §2, §3, §4, §5, §6, §7, §8, §9
f. […]
as §10, §11

[8] = test system: ATCC Molt-4 (T-cell leukemia); test: Sulforhodamine B cytotoxicity assay, Molt-4; type: cell-based; conditions: 72 hours, SRB
Method: as §1, §2, §3, §4, §5, §6, §7, §8, §9
f. […]
as §10, §11

[9] = test system: ATCC MCF-7 (Breast carcinoma); test: Sulforhodamine B cytotoxicity assay, MCF-7; type: cell-based; conditions: SRB
Method: as §1, §2, §3, §4, §5, §6, §7, §8, §9
f. […]
as §10, §11

[10] = test system: ATCC HL-60 (promyeocytic leukemia); test: Sulforhodamine B cytotoxicity assay, HL-60; type: cell-based; conditions: 72 hours, SRB
Method: as §1, §2, §3, §4, §5, §6, §7, §8, §9
f. […]
as §10, §11

H-322 (lung carcinoma) = test: Sulforhodamine B cytotoxicity assay, H-322; type: cell-based; conditions: NCI-H322, 72 hours, SRB
Method: as §1, §2, §3, §4, §5, §6, §7, §8, §9
f. […]
as §10, §11

Neocarzinostatin
DNA cleavage site / sequence specificity (DNA): sequence-specificity in its DNA cleavage

CCN[C@H]1CO[C@@H](O[C@H]2[C@H](O[C@H]3C#C/C=C\C#C[C@]4(O)CC(=O)C(NC(=O)OC)=C3/C4=C\CSSSC)O[C@H](C)[C@@H](NO[C@H]3C[C@H](O)[C@H](SC(=O)c4c(C)c(I)c(O[C@@H]5O[C@@H](C)[C@H](O)[C@@H](OC)[C@H]5O)c(OC)c4OC)[C@@H](C)O3)[C@@H]2O)C[C@@H]1OC [calicheamicin]
optimal dose against murine tumors (murine tumors; murine tumors): 0.5-1.5 microgram (μg) per kilogram (kg) of body weight | activity relative to adriamycin against murine tumors (murine tumors; vs adriamycin): about 1000 -fold more active | DNA cleavage site / sequence specificity (DNA): 5' side of a TCCT sequence

COC(=O)NC1=C2/C(=C\CSSSC)[C@](O)(C#C/C=C\C#C[C@@H]2O)CC1=O [(-)-calicheamicinone, (-)-Calicheamicinone]
pIC50 [1]: 4.60 | pIC50 ([2]; 72 hours): 6.41 | pIC50 [3]: 4.55 | pIC50 [4]: 4.60 | pIC50 [5]: 4.20 | pIC50 [6]: 4.89 | pIC50 [7]: 5.51 | pIC50 (UCLA-P3 (lung carcinoma); 72 hours): 4.60 | pIC50 [8]: 9.00 | pIC50 ([9]; 72 hours): 4.89 | pIC50 [10]: 6.70

COc1cccc2c1C(=O)c1c(O)c3c(c(O)c1C2=O)C[C@@](O)(C(C)=O)C[C@@H]3O[C@H]1C[C@H](N)[C@H](O)[C@H](C)O1 [Daunomycin, daunomycin]
pIC50 ([1]; Homo sapiens): 5.80 | pIC50 ([2]; Mus musculus, P388, 72 hours): 6.70 | pIC50 ([3]; Homo sapiens): 5.80 | pIC50 ([4]; Homo sapiens): 6.41 | pIC50 [5]: 5.80 | pIC50 ([6]; Homo sapiens): 6.41 | pIC50 ([7]; Homo sapiens): 6.11 | pIC50 (H-322 (lung carcinoma)): 5.80 | pIC50 (UCLA-P3 (lung carcinoma); Homo sapiens, UCLA P-3, 72 hours): 5.80 | pIC50 ([8]; Homo sapiens): 10.00 | pIC50 ([9]; Homo sapiens, MCF7, 72 hours): 6.41 | pIC50 ([10]; Homo sapiens): 6.70

— US5264586A, “Analogs of calicheamicin gamma1I, method of making and using the same” (priority 1992, dated 1993)
